Data from patent publication US11384063B2, “Modulators of estrogen receptor proteolysis and associated methods of use” (Arvinas Operations, Inc., priority 2017, dated 2022).

Target: T1, ERα (Homo sapiens, UniProt P03372)
T1 sequence (P03372 1-595): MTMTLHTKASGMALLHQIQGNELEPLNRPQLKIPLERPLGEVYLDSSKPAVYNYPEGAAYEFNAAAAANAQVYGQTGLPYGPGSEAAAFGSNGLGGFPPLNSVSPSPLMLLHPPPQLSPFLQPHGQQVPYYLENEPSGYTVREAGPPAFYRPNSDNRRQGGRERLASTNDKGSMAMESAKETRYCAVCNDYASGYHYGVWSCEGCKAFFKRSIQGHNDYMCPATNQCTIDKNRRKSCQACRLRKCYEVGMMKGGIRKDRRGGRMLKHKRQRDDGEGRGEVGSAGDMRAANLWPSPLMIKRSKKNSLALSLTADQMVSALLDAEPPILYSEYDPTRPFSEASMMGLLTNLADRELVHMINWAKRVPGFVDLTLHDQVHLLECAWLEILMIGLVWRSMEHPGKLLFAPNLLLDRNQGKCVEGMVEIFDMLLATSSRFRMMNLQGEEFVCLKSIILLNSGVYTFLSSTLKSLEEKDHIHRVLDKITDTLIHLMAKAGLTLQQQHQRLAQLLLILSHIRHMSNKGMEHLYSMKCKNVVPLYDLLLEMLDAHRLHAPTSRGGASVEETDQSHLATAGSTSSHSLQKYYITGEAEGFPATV
Test: ERE luciferase reporter gene assay in T47D-KBluc cells (target engagement)
Assay type: cell-based
Parameters: T47D human breast cancer cells stably transfected with estrogen responsive element/promoter/luciferase reporter gene; host or cells: T47D-KBluc cells
Conditions: 10% FBS, 24 hours, Table 2 VHL centric PROTACs, read-out: IC50
Description: Chimeric molecules were assessed for target engagement in T47D cells using the commercial kit of ERE luciferase reporter gene assay. In the assay, 10% FBS was included and estrogen level was measured to be 10 pM.
ERE Luciferase Assay for Compounds in Table 1-3.
T47D-KBluc cells (ATCC #CRL_2865, T47D human breast cancer cells stably transfected with estrogen responsive element/promoter/luciferase reporter gene) were seeded into 96-well white opaque plates in RPMI growth medium supplemented with 10% fetal bovine serum and allowed to adhere overnight in a 37° C. humidified incubator. The following day, cells were treated with PROTACs in a 12-point concentration curve (top final concentration of 300 nM with subsequent concentrations being 3-fold less with 2 pM being the lowest concentration in the assay). Each PROTAC was tested independently in two experiments on 96-well plates. After 24 hours, media was removed and lysis buffer was added to the wells. Following lysis, Bright-Glo™ Luciferase Assay Substrate (Prornega, Madison Wis.) was added and the luciferase activity was measured using a Cytation 3 plate reader (TioTek™, Winooski, Vt.). Each compound was assayed in duplicates and the activity was calculated as IC50 using GraphPad Prism software (San Diego, Calif.).

IC50 | Structure (SMILES)
4.1 nM | Cc1ncoc1-c1ccc([C@H](C)NC(=O)[C@@H]2C[C@@H](O)CN2C(=O)[C@@H](NC(=O)COCCOCCOCCOc2ccc(Oc3c(-c4ccc(Cl)cc4)sc4cc(O)ccc34)cc2)C(C)(C)C)cc1 [Compound 120]
> 100 nM | Cc1ncsc1-c1ccc(CNC(=O)[C@@H]2C[C@@H](O)CN2C(=O)[C@@H](NC(=O)CCCN2CC3CN(CCOc4ccc(Oc5c(-c6ccc(F)cc6)sc6cc(O)ccc56)cc4)CC3C2)C(C)(C)C)cc1 (stereo partly shown) [Compound 122]
5.5 nM | Cc1ncsc1-c1ccc(CNC(=O)[C@@H]2C[C@@H](O)CN2C(=O)[C@@H](NC(=O)COCCO[C@H]2CCN(CCOc3ccc(Oc4c(-c5ccc(F)cc5)sc5cc(O)ccc45)cc3)C2)C(C)(C)C)cc1 [Compound 123]
2.2 nM | Cc1ncsc1-c1ccc(CNC(=O)[C@@H]2C[C@@H](O)CN2C(=O)[C@@H](NC(=O)CCCC(=O)N2CCN(CCOc3ccc(Oc4c(-c5ccc(F)cc5)sc5cc(O)ccc45)cc3)[C@@H](C)C2)C(C)(C)C)cc1 [Compound 124]
1.6 nM | Cc1ncsc1-c1ccc(CNC(=O)[C@@H]2C[C@@H](O)CN2C(=O)[C@@H](NC(=O)CCCC(=O)N2CCN(CCOc3ccc(Oc4c(-c5ccc(F)cc5)sc5cc(O)ccc45)cc3)[C@H](C)C2)C(C)(C)C)cc1 [Compound 125]
0.4 nM | Cc1ncsc1-c1ccc(CNC(=O)[C@@H]2C[C@@H](O)CN2C(=O)[C@@H](NC(=O)CCCOCC2CCN(CCOc3ccc(Oc4c(-c5ccc(F)cc5)sc5cc(O)ccc45)cc3)C2)C(C)(C)C)cc1 (stereo partly shown) [Compound 131]
1.3 nM | C[C@H](NC(=O)[C@@H]1C[C@@H](O)CN1C(=O)[C@@H](NC(=O)COCCOCCOCCOc1ccc(Oc2c(-c3ccc(F)cc3)sc3cc(O)ccc23)cc1)C(C)(C)C)c1ccc(C#N)cc1 [Compound 132]
1.5 nM | CC(C)(C)[C@H](NC(=O)COCCOCCOCCOc1ccc(Oc2c(-c3ccc(F)cc3)sc3cc(O)ccc23)cc1)C(=O)N1C[C@H](O)C[C@H]1C(=O)NCc1ccc(C#N)cc1 [Compound 136]
87 nM | Cc1ncsc1-c1ccc(CNC(=O)[C@@H]2C[C@@H](O)CN2C(=O)[C@@H](NC(=O)CCCOC2CCN(CCOc3ccc(Oc4c(-c5ccc(F)cc5)sc5cc(O)ccc45)cc3)CC2)C(C)(C)C)cc1 [Compound 137]
32 nM | CC(C)(C)[C@H](NC(=O)COCCOCCN1CCC(c2ccc(Oc3c(-c4ccc(F)cc4)sc4cc(O)ccc34)cc2)CC1)C(=O)N1C[C@H](O)C[C@H]1C(=O)NCc1ccc(C#N)cc1 [Compound 143]
> 100 nM | CC(C)(C)[C@H](NC(=O)COCCOCCN1CCC(c2ccc(Oc3c(-c4ccc(F)cc4)sc4cc(O)ccc34)cc2)CC1)C(=O)N1C[C@H](O)C[C@H]1C(=O)NCc1ccc(Cl)cc1 [Compound 144]
97 nM | CC(C)(C)[C@H](NC(=O)Cc1ccc(-c2ccn(CCOc3ccc(Oc4c(-c5ccc(F)cc5)sc5cc(O)ccc45)cc3)n2)cc1)C(=O)N1C[C@H](O)C[C@H]1C(=O)NCc1ccc(C#N)cc1 [Compound 145]
> 100 nM | CC(C)(C)[C@H](NC(=O)Cc1ccc(-c2ccn(CCOc3ccc(Oc4c(-c5ccc(F)cc5)sc5cc(O)ccc45)cc3)n2)cc1)C(=O)N1C[C@H](O)C[C@H]1C(=O)NCc1ccc(Cl)cc1 [Compound 146]
> 100 nM | C[C@H](NC(=O)[C@@H]1C[C@@H](O)CN1C(=O)[C@@H](NC(=O)COCCOCCN1CCC(c2ccc(Oc3c(-c4ccc(F)cc4)sc4cc(O)ccc34)cc2)CC1)C(C)(C)C)c1ccc(Cl)cc1 [Compound 148]
> 100 nM | Cc1ncsc1-c1ccc(CNC(=O)[C@H]2C[C@H](O)CN2C(=O)[C@@H](NC(=O)COCCN2CCN(CCOc3ccc(Oc4c(-c5ccc(Br)cc5)sc5cc(O)ccc45)cc3)CC2)C(C)(C)C)cc1 [Compound 152]
> 100 nM | COc1ccc2c(Oc3ccc(OCCN4CCN(CCOCC(=O)N[C@H](C(=O)N5C[C@H](O)C[C@H]5C(=O)NCc5ccc(-c6scnc6C)cc5)C(C)(C)C)CC4)cc3)c(-c3ccc(Br)cc3)sc2c1 [Compound 154]
> 100 nM | COc1ccc2c(Oc3ccc(OCCN4CCN(CCOCC(=O)N[C@H](C(=O)N5C[C@H](O)C[C@H]5C(=O)N[C@@H](C)c5ccc(-c6scnc6C)cc5)C(C)(C)C)CC4)cc3)c(-c3ccc(Br)cc3)sc2c1 [Compound 155]
> 100 nM | Cc1ncsc1-c1ccc(CNC(=O)[C@@H]2CCCN2C(=O)[C@@H](NC(=O)COCCN2CCN(CCOc3ccc(Oc4c(-c5ccc(Br)cc5)sc5cc(O)ccc45)cc3)CC2)C(C)(C)C)cc1 [Compound 156]
> 100 nM | COc1ccc2c(Oc3ccc(OCCN4CCN(CCOCC(=O)N[C@H](C(=O)N5CCC[C@H]5C(=O)NCc5ccc(-c6scnc6C)cc5)C(C)(C)C)CC4)cc3)c(-c3ccc(Br)cc3)sc2c1 [Compound 157]
> 100 nM | COc1ccc2c(Oc3ccc(OCCN4CCN(CCOCC(=O)N[C@H](C(=O)N5CC(=O)C[C@H]5C(=O)NCc5ccc(-c6scnc6C)cc5)C(C)(C)C)CC4)cc3)c(-c3ccc(Br)cc3)sc2c1 [Compound 159]
> 100 nM | Cc1ncsc1-c1ccc(CNC(=O)[C@@H]2C[C@@H](O)CN2C(=O)[C@H](c2cc(OCCN3CCN(CCOc4ccc(Oc5c(-c6ccc(Br)cc6)sc6cc(O)ccc56)cc4)CC3)no2)C(C)C)cc1 [Compound 163]

Same assay, conditions: 10% FBS, 24 hours, Table 3 cereblon centric PROTACs, read-out: ER-α Luciferase IC50

IC50 | Structure (SMILES)
5.6 nM | O=C1CCC(N2Cc3cc(NCCCOCCCOCCCOc4ccc(Oc5c(-c6ccc(Br)cc6)sc6cc(O)ccc56)cc4)ccc3C2=O)C(=O)N1 (stereo not shown) [Compound 170]
8.7 nM | O=C1CCC(N2Cc3cc(NCCCOCCOCCOc4ccc(Oc5c(-c6ccc(Br)cc6)sc6cc(O)ccc56)cc4)ccc3C2=O)C(=O)N1 (stereo not shown) [Compound 171]
15.7 nM | O=C1CCC(N2C(=O)c3ccc(NCCCOCCCOCCOc4ccc(Oc5c(-c6ccc(Br)cc6)sc6cc(O)ccc56)cc4)cc3C2=O)C(=O)N1 (stereo not shown) [Compound 172]
8 nM | O=C1CCC(N2Cc3cc(NCCCOCCCOCCCCOc4ccc(Oc5c(-c6ccc(Br)cc6)sc6cc(O)ccc56)cc4)ccc3C2=O)C(=O)N1 (stereo not shown) [Compound 173]
66.7 nM | O=C1CCC(N2C(=O)c3ccc(OCCCOCCCOCCCCOc4ccc(Oc5c(-c6ccc(Br)cc6)sc6cc(O)ccc56)cc4)cc3C2=O)C(=O)N1 (stereo not shown) [Compound 175]
28.7 nM | O=C1CCC(N2C(=O)c3ccc(NCCCOCCCOCCCCOc4ccc(Oc5c(-c6ccc(Br)cc6)sc6cc(O)ccc56)cc4)cc3C2=O)C(=O)N1 (stereo not shown) [Compound 176]
> 300 nM | O=C1CCC(N2C(=O)c3ccc(N4CCN(CCC5CN(CCOc6ccc(Oc7c(-c8ccc(Br)cc8)sc8cc(O)ccc78)cc6)C5)CC4)cc3C2=O)C(=O)N1 (stereo not shown) [Compound 186]
5.1 nM | O=C1CCC(N2Cc3cc(N4CCC(CN5CCC(Oc6ccc(Oc7c(-c8ccc(C(F)(F)F)cc8)sc8cc(O)ccc78)cc6)CC5)CC4)ccc3C2=O)C(=O)N1 (stereo not shown) [Compound 187]
8.7 nM | O=C1CCC(N2C(=O)c3ccc(N4CCC(CN5CCC(Oc6ccc(Oc7c(-c8ccc(C(F)(F)F)cc8)sc8cc(O)ccc78)cc6)CC5)CC4)cc3C2=O)C(=O)N1 (stereo not shown) [Compound 188]
3 nM | O=C1CCC(N2C(=O)c3ccc(N4CC(CN5CCN(CCOc6ccc(Oc7c(-c8ccc(Br)cc8)sc8cc(O)ccc78)cc6)CC5)C4)cc3C2=O)C(=O)N1 (stereo not shown) [Compound 189]
2.9 nM | O=C1CCC(N2Cc3c(ccc(N4CCN(C5CCN(CCOc6ccc(Oc7c(-c8ccc(Br)cc8)sc8cc(O)ccc78)cc6)CC5)CC4)c3F)C2=O)C(=O)N1 (stereo not shown) [Compound 195]
8.6 nM | O=C1CCC(N2Cc3cc(C4CCN(C5CCN(CCOc6ccc(Oc7c(-c8ccc(Br)cc8)sc8cc(O)ccc78)cc6)CC5)CC4)ccc3C2=O)C(=O)N1 (stereo not shown) [Compound 196]
2.8 nM | O=C1CCC(N2C(=O)c3ccc(CCCCN4CCCN(CCOc5ccc(Oc6c(-c7ccc(Br)cc7)sc7cc(O)ccc67)cc5)CC4)cc3C2=O)C(=O)N1 (stereo not shown) [Compound 197]
10.2 nM | O=C1CCC(N2Cc3cc(N4CCN(C5CC6(C5)CN(CCOc5ccc(Oc7c(-c8ccc(C(F)(F)F)cc8)sc8cc(O)ccc78)cc5)C6)CC4)ccc3C2=O)C(=O)N1 (stereo not shown) [Compound 198]
8.4 nM | O=C1CCC(N2Cc3cc(N4CCN(CC5CCN(CCOc6ccc(Oc7c(-c8ccc(C(F)(F)F)cc8)sc8cc(O)ccc78)cc6)CC5)CC4)ccc3C2=O)C(=O)N1 (stereo not shown) [Compound 200]
14.8 nM | O=C1CCC(N2C(=O)c3ccc(N4CCN(CC5CCN(CCOc6ccc(Oc7c(-c8ccc(C(F)(F)F)cc8)sc8cc(O)ccc78)cc6)CC5)CC4)cc3C2=O)C(=O)N1 (stereo not shown) [Compound 202]
